Measurements published in publication PMC5031696, “Synthesis, Biodistribution and In vitro Evaluation of Brain Permeable High Affinity Type 2 Cannabinoid Receptor Agonists [^11C]MA2 and [^18F]MA3” (Frontiers in Neuroscience, 2016).
Values joined by “and” are separate entries in the source; they are usually repeats but may differ in a detail not shown here. Equal values may be shown once.

What was measured:
[1] = biodistribution studies in male NMRI mice; format: in vivo, mouse; conditions: NMRI mice; for % ID bladder + urine / % ID blood / SUV blood / % ID brain / SUV brain / % ID heart / SUV heart / % ID intestines / % ID kidneys / SUV kidneys / % ID liver / SUV liver / % ID lungs / SUV lungs / % ID pancreas / SUV pancreas / % ID spleen / SUV spleen / % ID stomach: i.v.
Experimental: The tissue distribution and kinetics of [^11C]MA2 and [^18F]MA3 were studied in male NMRI mice at 2, 10, 30, and 60 min post injection of the tracer. The results of the biodistribution studies are presented in Table 1 ([^11C]MA2) and Table 2 ([^18F]MA3) as percentage of injected dose (% ID) and standard uptake value (SUV).
The biodistribution of [^11C]MA2 and [^18F]MA3 was studied in normal male Naval Medical Research Institute (NMRI) mice. A solution of HPLC-purified [^11C]MA2 or [^18F]MA3 was diluted with saline to obtain an ethanol concentration < 10%. Mice were anesthetized with isoflurane (2% in oxygen) and injected intravenously (i.v.) with [^11C]MA2 (~ 9.25 MBq) or [^18F]MA3 (~ 0.92 MBq) via a lateral tail vein. The mice were sacrificed by decapitation at 2, and 60 min post injection (for [^11C]MA2, n = 4) and at 2, 10, 30, or 60 min post injection (for [^18F]MA3, n = 3 or 4 per time point) and dissected. Blood, organs, and other body parts were collected in tared tubes and the radioactivity in each tube was measured using an automated gamma counter. The tubes containing selected organs and blood were weighed. For calculation of total radioactivity in blood, blood mass was assumed to be 7% of the body mass (Fritzberg et al., [1982]). Quantitative data are expressed as mean ± standard deviation (SD). Means were compared using an unpaired two-tailed student t-test. Values were considered statistically significant for P ≤ 0.05.

[2] = plasma radiometabolite analysis; format: in vivo; conditions: mouse plasma, average of 2 assays
Experimental: The fraction of radiometabolites in mouse plasma at 2 and 30 min after injection of the tracer was determined by RP-HPLC analysis to investigate the in vivo stability of [^11C]MA2. […] At 2 min post injection of [^11C]MA2, 88% (n = 2) of the recovered radioactivity was assigned to the intact parent tracer. The percentage of intact [^11C]MA2 decreased to 34% at 30 min post injection of the tracer. All detected radiometabolites were more polar than the intact tracer.
After i.v. administration of [^11C]MA2 (~ 9.25 MBq) via a lateral tail vein to anesthetized NMRI mice (isoflurane 2% in oxygen), the mice were decapitated at 2 or 30 min post injection (n = 2 per time point). […] The isolated plasma was spiked with authentic non-radioactive MA2 (15 μL of 1 mg/mL solution in CH3CN) and analyzed by RP-HPLC on a Chromolith RP C18 column (3 mm x 100 mm; Merck) eluted with gradient mixtures of CH3CN (A) and 0.05 M NaOAc pH 5.5 (B) (0–5 min: Isocratic 100% B, flow rate of 0.5 mL/min; 5–10 min: Linear gradient 100 B to 10% B, flow rate of 1 mL/min; 10–13 min: Isocratic 10% B, flow rate of 1 mL/min; 13–13.1 min: Linear gradient 10 B to 100% B, flow rate of 0.5 mL/min; 13.1–15 min: Isocratic 100% B, flow rate of 0.5 mL/min). […] The radioactivity in all fractions was measured using an automated gamma counter. […]

CB2 = tested on: CB2; design: method as in Evens et al., 2011; conditions: ref Evens et al., 2011; cited from earlier work
[3] = design: method as in Horti et al., 2010; conditions: rat brain, 2 min post injection; ref Horti et al., 2010; cited from earlier work

[11CH3]Oc1ccc2ncc(NCCCc3nc(-c4ccc(F)cc4Cl)no3)cc2c1 [[^11C]MA2]
accumulation in the spleen [1]: no accumulation | % ID bladder + urine ([1]; 2 min post injection): 0.2 ± 0.1 % ID | % ID bladder + urine ([1]; 60 min post injection): 4.5 % ID and 4.5 ± 1.0 % ID | % ID blood ([1]; 2 min post injection): 5.8 ± 0.4 % ID | SUV blood ([1]; 2 min post injection): 0.8 ± 0.1 | % ID blood ([1]; 60 min post injection): 0.7 ± 0.1 % ID | SUV blood ([1]; 60 min post injection): 0.1 ± 0.0 | % ID brain ([1]; 2 min post injection): 1.6 % ID and 1.6 ± 0.5 % ID | SUV brain ([1]; 2 min post injection): 1.8 ± 0.2 | % ID brain ([1]; 60 min post injection): 0.1 ± 0.0 % ID | SUV brain ([1]; 60 min post injection): 0.1 ± 0.0 | blood % ID 2 min/60 min ratio ([1]; clearance from blood): 8.6 | % ID heart ([1]; 2 min post injection): 1.4 ± 0.4 % ID | SUV heart ([1]; 2 min post injection): 3.3 ± 0.6 | % ID heart ([1]; 60 min post injection): 0.1 ± 0.0 % ID | SUV heart ([1]; 60 min post injection): 0.1 ± 0.0 | % ID intestines ([1]; 2 min post injection): 9.7 ± 0.4 % ID | % ID intestines ([1]; 60 min post injection): 63.8 % ID and 63.8 ± 2.9 % ID | % ID kidneys ([1]; 2 min post injection): 8.3 ± 1.6 % ID | SUV kidneys ([1]; 2 min post injection): 5.1 ± 0.7 | % ID kidneys ([1]; 60 min post injection): 1.0 ± 0.3 % ID | SUV kidneys ([1]; 60 min post injection): 0.6 ± 0.1 | % ID liver ([1]; 2 min post injection): 28.3 ± 2.9 % ID | SUV liver ([1]; 2 min post injection): 6.0 ± 0.1 | % ID liver ([1]; 60 min post injection): 9.1 ± 3.0 % ID | SUV liver ([1]; 60 min post injection): 2.0 and 2.0 ± 0.5 | % ID lungs ([1]; 2 min post injection): 1.4 ± 0.3 % ID | SUV lungs ([1]; 2 min post injection): 2.3 ± 0.4 | % ID lungs ([1]; 60 min post injection): 0.1 ± 0.0 % ID | SUV lungs ([1]; 60 min post injection): 0.2 ± 0.0 | % ID pancreas ([1]; 2 min post injection): 1.6 ± 0.8 % ID | SUV pancreas ([1]; 2 min post injection): 2.2 ± 1.0 | % ID pancreas ([1]; 60 min post injection): 0.2 ± 0.1 % ID | SUV pancreas ([1]; 60 min post injection): 0.3 ± 0.0 | % ID spleen ([1]; 2 min post injection): 0.5 ± 0.2 % ID | SUV spleen ([1]; 2 min post injection): 2.0 ± 0.2 | % ID spleen ([1]; 60 min post injection): 0.03 ± 0.01 % ID | SUV spleen ([1]; 60 min post injection): 0.2 ± 0.0 | % ID stomach ([1]; 2 min post injection): 1.3 ± 0.3 % ID | % ID stomach ([1]; 60 min post injection): 4.2 ± 3.9 % ID | brain % ID 2 min/60 min ratio ([1]; wash-out from brain): 18.4 | % of intact tracer in blood plasma ([2]; 2 min post injection): 88% | % of intact tracer in blood plasma ([2]; 30 min post injection): 34%

Cc1c(CCN2CCOCC2)c2cc(O[11CH3])ccc2n1C(=O)c1cccc(Cl)c1Cl [[^11C]GW405833]
binding affinity for CB2 (CB2): 35 nM

Cc1sc(=NC(=O)C2C(C)(C)C2(C)C)n(CCO[11CH3])c1C [[^11C]A-836339]
SUV in brain [3]: ~ 0.5
